Results as given in PubChem BioAssay (NCI).
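Where inhibition never reached the appropriate level, the endpoint shown equals the highest concentration tested. Otherwise, values were interpolated linearly from a five-concentration, 48-hour dose response in 96-well plates. TGI marks complete inhibition of growth.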 Where a SMILES comes first, the peptide text is derived from it. The star is where a group is joined. Boc = CC(C)(C)OC(=O)*

Experiments:
Experiment in all cases: NCI tumour cell line growth inhibition, 48 h
UACC-62 melanoma = tested on: UACC-62 melanoma
CAKI-1 renal = tested on: CAKI-1 renal
786-0 renal = tested on: 786-0 renal
HT29 colon = tested on: HT29 colon
HOP-62 NSCLC = tested on: HOP-62 NSCLC
HCT-15 colon = tested on: HCT-15 colon
NCI-H23 lung = tested on: NCI-H23 lung
DU-145 prostate = tested on: DU-145 prostate
UACC-257 melanoma = tested on: UACC-257 melanoma
SK-MEL-2 melanoma = tested on: SK-MEL-2 melanoma
NCI-H226 lung = tested on: NCI-H226 lung

Compound | TGI (UACC-62 melanoma) | TGI (CAKI-1 renal) | TGI (786-0 renal) | TGI (HT29 colon) | TGI (HOP-62 NSCLC) | TGI (HCT-15 colon) | TGI (NCI-H23 lung) | TGI (DU-145 prostate) | TGI (UACC-257 melanoma) | TGI (SK-MEL-2 melanoma) | TGI (NCI-H226 lung)
Cn1cnc(N2CCCC2)c(C#N)c1=S | > 100 µM | > 100 µM | > 100 µM | > 100 µM | > 100 µM | > 100 µM | > 100 µM | > 100 µM | > 100 µM | > 100 µM | > 100 µM
COc1cccc2c1NC(=O)Cc1c-2[nH]c2ccccc12 | > 100 µM | > 100 µM | > 100 µM | > 100 µM | > 100 µM | > 100 µM | > 100 µM | > 100 µM |  | > 100 µM | > 100 µM
O=C1c2ccccc2C(=O)N1n1c(Cc2ccc(Cl)cc2)n[nH]c1=O | > 100 µM | > 100 µM | > 100 µM | > 100 µM | > 100 µM | > 100 µM | > 100 µM | > 100 µM | > 100 µM | > 100 µM | > 100 µM
CCOC(=O)c1[nH]cc(C)c1-c1cccn1-c1ccc(Cl)cc1[N+](=O)[O-] | 48.2 µM | > 100 µM | 36.1 µM | 30.7 µM | 44.9 µM | > 100 µM | > 100 µM | > 100 µM | 67.8 µM | 39.2 µM | 46.2 µM
O=C(CCBr)N1CCN(C(=O)CCBr)CC1 | 73.3 µM | 168 µM | 191 µM | 280 µM | 155 µM | 222 µM | 150 µM | 496 µM | 246 µM | 221 µM | 201 µM
CCC(=O)Nc1cccc(N=Cc2ccc(OC(=O)/C=C\c3ccccc3)cc2)c1 | > 75 µM | > 75 µM | > 75 µM | > 75 µM | > 75 µM | > 75 µM | > 75 µM | > 75 µM | > 75 µM | > 75 µM | > 75 µM
O=c1c2c3c(sc2nc2n1N=CN(c1ccccc1)C2)CCCC3 | > 100 µM | > 100 µM | > 100 µM | > 100 µM | > 100 µM | > 100 µM | > 100 µM | > 100 µM | > 100 µM | > 100 µM | > 100 µM
CN1CCN(C(=O)CCC(=O)Nc2cc3c(c4ccccc24)-c2ccc4ccccc4c2C3)CC1 | 3.32 µM | 3.16 µM | 3.13 µM | 3.23 µM | 3.15 µM | 3.68 µM | 3.47 µM | 3.52 µM | 3.24 µM | 3.65 µM | 3.93 µM
Cc1nn(C(=O)c2ccccc2O)c2c1C(c1ccc(O)cc1O)SC(N)=N2 (stereo not drawn) | 5.71 µM | > 10 µM | > 10 µM | > 10 µM | > 10 µM | > 10 µM | > 10 µM | > 10 µM |  | > 10 µM | 3.82 µM
COc1ccc2nc3c([N+](=O)[O-])ccc(NCCN(C)C)c3c(N)c2c1 | 3.63 µM | 3.42 µM | 3.31 µM | 1.73 µM | 3.65 µM | 2.49 µM | 3.73 µM | 3.17 µM | 3.99 µM | 4.76 µM | 4.54 µM
CC(=O)C1=C(C)O[C@@H]2O[C@H](COCc3ccccc3)[C@@H](OCc3ccccc3)[C@H](O)[C@@H]2S1 | 31.8 µM | > 100 µM | 60.6 µM | 43.2 µM | 46.2 µM | 71.6 µM | 59.9 µM | 58.9 µM | 39.7 µM | 39.1 µM | 48.6 µM
Cc1cc2nc3c(C#N)c4c(c(Nc5ccc(F)cc5)n3c2cc1C)CCC4 | > 100 µM | > 100 µM | > 100 µM | > 100 µM | > 100 µM | > 100 µM | > 100 µM | > 100 µM | > 100 µM | > 100 µM | > 100 µM
COC(=O)C(Cc1ccccc1)NC(=O)C(CS)NC(=O)OC(C)(C)C (stereo not drawn) (Boc-Cys-Phe-OMe; configuration not given here) | > 100 µM | > 100 µM | > 100 µM | > 100 µM | > 100 µM | > 100 µM | > 100 µM | > 100 µM | > 100 µM | > 100 µM | > 100 µM
Cc1cc2c(c(C(=O)NCC(=O)N[C@@H](C)C(=O)OCc3ccccc3)c1)Oc1c(cc(C)cc1C(=O)NCC(=O)N[C@@H](C)C(=O)OCc1ccccc1)S2 | > 100 µM | > 100 µM | > 100 µM | > 100 µM | > 100 µM | > 100 µM | > 100 µM | > 100 µM | > 100 µM | > 100 µM | > 100 µM
CCOC(=O)c1c(NS(=O)(=O)c2ccc(C)cc2)sc2c1CCCC2 | 56.5 µM | > 100 µM | > 100 µM | 47.6 µM | 60.2 µM | 42.1 µM | 54 µM | > 100 µM | > 100 µM | 54.8 µM | > 100 µM
CC(C)C(Nc1ncnc2nc[nH]c12)C(=O)O (stereo not drawn) | > 100 µM | > 100 µM | > 100 µM | > 100 µM | > 100 µM | > 100 µM | > 100 µM | > 100 µM | > 100 µM | > 100 µM | > 100 µM
CCOC(=O)/C=C(/C(=O)OCC)n1cc(C)c(=O)n(Cc2cnnn2COCCOC(C)=O)c1=O | 30.5 µM | 11 µM | 22.5 µM | 27.6 µM | > 100 µM | > 49.1 µM | 31.5 µM | > 52.8 µM | 28.6 µM | 60.3 µM | 28.7 µM
N#Cc1c(N)oc(-c2ccc([N+](=O)[O-])cc2)c1C#N | > 100 µM | 54.7 µM | > 100 µM | > 100 µM | 73.5 µM | 53.1 µM | 57.2 µM | 59.3 µM | 62 µM | 64.2 µM | 46.5 µM
O=c1[nH]c(=O)c2ncn(-c3ccc([N+](=O)[O-])cn3)c2[nH]1 | > 100 µM | > 100 µM | > 100 µM | > 100 µM | > 100 µM | > 100 µM | > 100 µM | > 100 µM | > 100 µM | > 100 µM | > 100 µM
COC(=O)Nc1nc2ccc(S(=O)(=O)Nc3ccccn3)cc2[nH]1 | > 100 µM | > 100 µM | > 100 µM | > 100 µM | > 100 µM | > 100 µM | > 100 µM | > 100 µM | 93.5 µM | > 100 µM | > 100 µM
